Article PMC9180949, “Design, Spectroscopy, and Assessment of Cholinesterase Inhibition and Antimicrobial Activities of Novel Coumarin–Thiadiazole Hybrids” (International Journal of Molecular Sciences, 2022)

Key:
[1] = molecular target: T1, AChE; acetylcholinesterase (E.C. 3.1.1.7) from Electrophorus electricus (Electrophorus electricus, UniProt O42275); experiment: Ellman assay, absorbance at […] nm; type: biochemical; settings: read-out: AChE / IC50 (μM) ± SD *
T1 construct: commercial enzyme from Sigma-Aldrich, EC 3.1.1.7, purified from electric eel

[2] = molecular target: T2, BuChE; butyrylcholinesterase (EC 3.1.1.8) from equine serum (Equus caballus, UniProt P81908); experiment: Ellman assay, absorbance at […] nm; type: biochemical; settings: read-out: BuChE / IC50 (μM) ± SD *
T2 construct: gene BCHE; commercial enzyme from equine serum, Sigma-Aldrich, EC 3.1.1.8
T2 sequence (P81908 whole entry): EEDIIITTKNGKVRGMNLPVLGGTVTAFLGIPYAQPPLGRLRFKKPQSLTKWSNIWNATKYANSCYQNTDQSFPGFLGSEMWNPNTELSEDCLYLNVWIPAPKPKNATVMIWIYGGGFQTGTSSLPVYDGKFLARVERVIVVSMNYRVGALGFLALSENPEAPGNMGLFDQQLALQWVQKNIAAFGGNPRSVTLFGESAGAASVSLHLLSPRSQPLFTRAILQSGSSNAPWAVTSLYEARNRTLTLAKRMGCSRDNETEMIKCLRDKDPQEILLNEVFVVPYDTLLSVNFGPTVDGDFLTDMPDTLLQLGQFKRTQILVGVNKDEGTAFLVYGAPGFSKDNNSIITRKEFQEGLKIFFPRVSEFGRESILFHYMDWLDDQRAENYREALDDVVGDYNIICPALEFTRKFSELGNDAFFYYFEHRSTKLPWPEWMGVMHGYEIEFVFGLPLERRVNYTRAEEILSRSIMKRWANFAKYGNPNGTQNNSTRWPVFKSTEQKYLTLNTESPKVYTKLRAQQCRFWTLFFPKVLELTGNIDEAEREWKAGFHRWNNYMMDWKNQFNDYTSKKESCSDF

T1 sequence (O42275 24-633): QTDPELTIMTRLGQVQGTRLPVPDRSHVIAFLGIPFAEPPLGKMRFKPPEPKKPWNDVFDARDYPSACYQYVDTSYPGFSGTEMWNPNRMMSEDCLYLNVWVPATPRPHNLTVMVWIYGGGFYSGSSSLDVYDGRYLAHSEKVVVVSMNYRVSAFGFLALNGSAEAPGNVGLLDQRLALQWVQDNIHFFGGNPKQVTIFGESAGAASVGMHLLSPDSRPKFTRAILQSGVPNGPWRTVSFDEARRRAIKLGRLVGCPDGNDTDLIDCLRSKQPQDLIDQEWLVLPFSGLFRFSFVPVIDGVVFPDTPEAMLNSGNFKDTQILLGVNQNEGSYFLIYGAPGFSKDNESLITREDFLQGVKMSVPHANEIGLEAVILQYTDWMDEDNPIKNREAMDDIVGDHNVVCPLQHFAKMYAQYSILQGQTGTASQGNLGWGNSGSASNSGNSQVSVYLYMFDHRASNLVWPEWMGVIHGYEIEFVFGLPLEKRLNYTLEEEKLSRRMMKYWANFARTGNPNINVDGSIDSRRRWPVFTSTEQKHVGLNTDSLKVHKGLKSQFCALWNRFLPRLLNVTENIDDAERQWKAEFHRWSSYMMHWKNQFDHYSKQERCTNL

Compound | IC50 [1] [µM] | IC50 [2] [µM]
CCN(CC)c1ccc2cc(-c3nnc(N)s3)c(=O)oc2c1 [compound 1, coumarin–thiadiazole hybrid 1] | 0.184 ± 0.011 | 0.191 ± 0.024
COc1cccc2cc(-c3nnc(N)s3)c(=O)oc12 [compound 2, coumarin–thiadiazole hybrid 2] | 0.213 ± 0.009 | 0.198 ± 0.039
CCOc1cccc2cc(-c3nnc(N)s3)c(=O)oc12 [compound 3, coumarin–thiadiazole hybrid 3] | 0.152 ± 0.003 | 0.295 ± 0.024
Nc1nnc(-c2cc3cc(Cl)ccc3oc2=O)s1 [compound 4, coumarin–thiadiazole hybrid 4] | 0.211 ± 0.01 | 0.205 ± 0.014
Nc1nnc(-c2cc3cc(Br)ccc3oc2=O)s1 [compound 5, coumarin–thiadiazole hybrid 5] | 0.183 ± 0.018 | 0.261 ± 0.015
Nc1nnc(-c2cc3cc([N+](=O)[O-])ccc3oc2=O)s1 [compound 6, coumarin–thiadiazole hybrid 6] | 0.198 ± 0.016 | 0.166 ± 0.022
COc1cc([N+](=O)[O-])cc2cc(-c3nnc(N)s3)c(=O)oc12 [compound 7, coumarin–thiadiazole hybrid 7] | 0.159 ± 0.015 | 0.494 ± 0.024
Nc1nnc(-c2cc3ccccc3oc2=O)s1 [compound 8, coumarin–thiadiazole hybrid 8] | 0.199 ± 0.003 | 0.392 ± 0.024
Nc1nnc(-c2cc3cc(O)ccc3oc2=O)s1 [compound 9, coumarin–thiadiazole hybrid 9] | 0.196 ± 0.022 | 0.235 ± 0.034
Nc1nnc(-c2cc3ccc(O)cc3oc2=O)s1 [compound 10, coumarin–thiadiazole hybrid 10] | 0.2 ± 0.012 | 0.38 ± 0.01
Nc1nnc(-c2cc3cccc(O)c3oc2=O)s1 [compound 11, coumarin–thiadiazole hybrid 11] | 0.165 ± 0.003 | 0.202 ± 0.03
Nc1nnc(-c2cc3ccc(O)c(O)c3oc2=O)s1 [compound 12, coumarin–thiadiazole hybrid 12] | 0.187 ± 0.015 | 0.264 ± 0.017
